Data taken from PubChem BioAssay AID2060505 (Molecular Pharmacology Branch, DTP, NCI, 2025).

Tested on: 633275-114-R-J1-PDC complex spheroids, viability
Assay: Anticancer human tumor 633275-114-R-J1-PDC patient-derived endometrial adenocarcinoma cell line growth inhibition [GQUAD]
Details: for IC50: curve of first compound; for viability, T/C: stronger effect = lower value; active means viability on the fitted dose curve at most 10% of control; inactive means the rest
Procedure, shortened: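 Viability of tumor cells grown as complex spheroids with endothelial and stromal cells, exposed to drug combinations. Top concentration at or near clinical Cmax (else 10 microM), diluted in half-log increments.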

[1] = second compound 0.0316 µM, first compound 0.0316 µM
[2] = second compound 0.0316 µM, first compound 0.1 µM
[3] = second compound 0.0316 µM, first compound 0.316 µM
[4] = second compound 0.0316 µM, first compound 1 µM
[5] = second compound 0.0316 µM, first compound 3.16 µM
[6] = second compound 0.0316 µM, first compound 10 µM
[7] = second compound 0.1 µM, first compound 0.0316 µM
[8] = second compound 0.1 µM, first compound 0.1 µM
[9] = second compound 0.1 µM, first compound 0.316 µM
[10] = second compound 0.1 µM, first compound 1 µM
[11] = second compound 0.1 µM, first compound 3.16 µM
[12] = second compound 0.1 µM, first compound 10 µM
[13] = second compound 0.316 µM, first compound 0.0316 µM
[14] = second compound 0.316 µM, first compound 0.1 µM
[15] = second compound 0.316 µM, first compound 0.316 µM
[16] = second compound 0.316 µM, first compound 1 µM
[17] = second compound 0.316 µM, first compound 3.16 µM
[18] = second compound 0.316 µM, first compound 10 µM
[19] = second compound 1 µM, first compound 0.0316 µM
[20] = second compound 1 µM, first compound 0.1 µM
[21] = second compound 1 µM, first compound 0.316 µM
[22] = second compound 1 µM, first compound 1 µM
[23] = second compound 1 µM, first compound 3.16 µM
[24] = second compound 1 µM, first compound 10 µM
[25] = second compound 3.16 µM, first compound 0.0316 µM
[26] = second compound 3.16 µM, first compound 0.1 µM
[27] = second compound 3.16 µM, first compound 0.316 µM
[28] = second compound 3.16 µM, first compound 1 µM
[29] = second compound 3.16 µM, first compound 3.16 µM
[30] = second compound 3.16 µM, first compound 10 µM
[31] = second compound 10 µM, first compound 0.0316 µM
[32] = second compound 10 µM, first compound 0.1 µM
[33] = second compound 10 µM, first compound 0.316 µM
[34] = second compound 10 µM, first compound 1 µM
[35] = second compound 10 µM, first compound 3.16 µM
[36] = second compound 10 µM, first compound 10 µM
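Further: spheroids exposed to the agents for seven days.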
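Wherever viability, T/C is given: percent of DMSO vehicle control viability which is 100%.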

COc1cccc2c1C(=O)c1c(O)c3c(c(O)c1C2=O)CC(O)(C(=O)CO)CC3OC1CC(N)C(O)C(C)O1 (stereo not given) + CN(C)c1ccc(Nc2c3ccc(NC(=O)CCN4CCCC4)cc3nc3cc(NC(=O)CCN4CCCC4)ccc23)cc1
65.5 nM: IC50 (second compound 1 µM)
47.1 nM: IC50 (second compound 3.16 µM)
< 31.6 nM: IC50 (second compound 10 µM)
91.8 nM: IC50 (second compound 0.0316 µM)
active: viability, T/C [5] 1.62% | viability, T/C [6] 2.01% | viability, T/C [11] 1.63% | viability, T/C [12] 2.02% | viability, T/C [17] 2.31% | viability, T/C [18] 1.97% | viability, T/C [23] 3.04% | viability, T/C [24] 1.66% | viability, T/C [29] 2.59% | viability, T/C [30] 1.1% | viability, T/C [34] 7.22% | viability, T/C [35] 0.49% | viability, T/C [36] 0.61%
73.2 nM: IC50 (second compound 0.316 µM)
inactive: viability, T/C [1] 62.9% | viability, T/C [2] 48.1% | viability, T/C [3] 32% | viability, T/C [4] 20.6% | viability, T/C [7] 62.7% | viability, T/C [8] 45% | viability, T/C [9] 31% | viability, T/C [10] 18.3% | viability, T/C [13] 63.6% | viability, T/C [14] 43.5% | viability, T/C [15] 30.1% | viability, T/C [16] 18.9% | viability, T/C [19] 59.1% | viability, T/C [20] 42% | viability, T/C [21] 33.6% | viability, T/C [22] 15.2% | viability, T/C [25] 56.9% | viability, T/C [26] 35.7% | viability, T/C [27] 29.4% | viability, T/C [28] 16.1% | viability, T/C [31] 25.3% | viability, T/C [32] 17.3% | viability, T/C [33] 10%
77.9 nM: IC50 (second compound 0.1 µM)

CC1COCCN1c1cc(-c2ccnn2C)c2ccnc(-c3ccn[nH]3)c2n1 (stereo not given) + Cc1[nH]c2ccc(F)cc2c1-c1nc2c3cccnc3c3ncccc3c2[nH]1
74.8 nM: IC50 (second compound 10 µM)
70.4 nM: IC50 (second compound 3.16 µM)
inactive: viability, T/C [1] 77.3% | viability, T/C [2] 56.4% | viability, T/C [3] 37.1% | viability, T/C [4] 27.7% | viability, T/C [5] 21.9% | viability, T/C [6] 16.8% | viability, T/C [7] 80.5% | viability, T/C [8] 57.5% | viability, T/C [9] 38.3% | viability, T/C [10] 26.3% | viability, T/C [11] 21.4% | viability, T/C [12] 17% | viability, T/C [13] 77.6% | viability, T/C [14] 62.9% | viability, T/C [15] 39% | viability, T/C [16] 28.1% | viability, T/C [17] 21.2% | viability, T/C [18] 18.4% | viability, T/C [19] 77.9% | viability, T/C [20] 52.5% | viability, T/C [21] 34.6% | viability, T/C [22] 26.6% | viability, T/C [23] 23% | viability, T/C [24] 17.7% | viability, T/C [25] 60.9% | viability, T/C [26] 46.1% | viability, T/C [27] 31.1% | viability, T/C [28] 26.8% | viability, T/C [29] 21.7% | viability, T/C [30] 17.5% | viability, T/C [31] 61% | viability, T/C [32] 46.9% | viability, T/C [33] 30.8% | viability, T/C [34] 25.1% | viability, T/C [35] 21.1% | viability, T/C [36] 18.6%
146 nM: IC50 (second compound 0.0316 µM)
116 nM: IC50 (second compound 1 µM)
156 nM: IC50 (second compound 0.1 µM)
191 nM: IC50 (second compound 0.316 µM)

Cc1cccc(N(C)C(=O)C2C(O)CCN2c2nc(C)cc(C(F)(F)F)c2C#N)c1 (stereo not given) + Cc1[nH]c2ccc(F)cc2c1-c1nc2c3cccnc3c3ncccc3c2[nH]1
> 10000 nM: IC50 (second compound 0.0316 µM) | IC50 (second compound 0.1 µM) | IC50 (second compound 0.316 µM) | IC50 (second compound 1 µM) | IC50 (second compound 3.16 µM) | IC50 (second compound 10 µM)
inactive: viability, T/C [1] 108% | viability, T/C [2] 97.1% | viability, T/C [3] 103% | viability, T/C [4] 94% | viability, T/C [5] 99.8% | viability, T/C [6] 99.4% | viability, T/C [7] 99.2% | viability, T/C [8] 99.9% | viability, T/C [9] 97.4% | viability, T/C [10] 94.3% | viability, T/C [11] 91.6% | viability, T/C [12] 101% | viability, T/C [13] 91.1% | viability, T/C [14] 101% | viability, T/C [15] 99.5% | viability, T/C [16] 98.9% | viability, T/C [17] 98% | viability, T/C [18] 99.2% | viability, T/C [19] 86.4% | viability, T/C [20] 86.2% | viability, T/C [21] 90.1% | viability, T/C [22] 90.4% | viability, T/C [23] 91.7% | viability, T/C [24] 92.9% | viability, T/C [25] 73.8% | viability, T/C [26] 71.6% | viability, T/C [27] 76.7% | viability, T/C [28] 74.4% | viability, T/C [29] 79.3% | viability, T/C [30] 75.5% | viability, T/C [31] 69.6% | viability, T/C [32] 77.7% | viability, T/C [33] 79.1% | viability, T/C [34] 72.6% | viability, T/C [35] 69.8% | viability, T/C [36] 71.2%

C#Cc1c(F)ccc2cc(O)cc(-c3ncc4c(N5CC6CCC(C5)N6)nc(OCC56CCCN5CC(F)C6)nc4c3F)c12 (stereo not given) + CN(C)c1ccc(Nc2c3ccc(NC(=O)CCN4CCCC4)cc3nc3cc(NC(=O)CCN4CCCC4)ccc23)cc1
inactive: viability, T/C [1] 108% | viability, T/C [2] 90.5% | viability, T/C [3] 86.9% | viability, T/C [4] 91.9% | viability, T/C [5] 78% | viability, T/C [6] 66% | viability, T/C [7] 101% | viability, T/C [8] 97.8% | viability, T/C [9] 91.5% | viability, T/C [10] 96.7% | viability, T/C [11] 81.5% | viability, T/C [12] 65.3% | viability, T/C [13] 94.6% | viability, T/C [14] 101% | viability, T/C [15] 86.8% | viability, T/C [16] 82.3% | viability, T/C [17] 71.9% | viability, T/C [18] 68.1% | viability, T/C [19] 97.5% | viability, T/C [20] 96.5% | viability, T/C [21] 87.2% | viability, T/C [22] 85.9% | viability, T/C [23] 70.6% | viability, T/C [24] 54.9% | viability, T/C [25] 81.9% | viability, T/C [26] 86.3% | viability, T/C [27] 81.6% | viability, T/C [28] 66.3% | viability, T/C [29] 62% | viability, T/C [30] 28.1% | viability, T/C [31] 32.5% | viability, T/C [32] 29.2% | viability, T/C [33] 23.3% | viability, T/C [34] 23.6% | viability, T/C [35] 16.1%
active: viability, T/C [36] 5.22%
4360 nM: IC50 (second compound 3.16 µM)
< 31.6 nM: IC50 (second compound 10 µM)
> 10000 nM: IC50 (second compound 0.0316 µM) | IC50 (second compound 0.1 µM) | IC50 (second compound 0.316 µM) | IC50 (second compound 1 µM)

CC(=O)O[C@H]1C(=O)[C@@]2(C)[C@H]([C@H](OC(=O)c3ccccc3)[C@]3(O)C[C@H](OC(=O)[C@H](O)[C@@H](NC(=O)c4ccccc4)c4ccccc4)C(C)=C1C3(C)C)[C@]1(OC(C)=O)CO[C@@H]1C[C@@H]2O + Cc1[nH]c2ccc(F)cc2c1-c1nc2c3cccnc3c3ncccc3c2[nH]1
inactive: viability, T/C [1] 50.9% | viability, T/C [2] 25.6% | viability, T/C [3] 20.8% | viability, T/C [4] 19.7% | viability, T/C [5] 20.6% | viability, T/C [6] 18.9% | viability, T/C [7] 45.3% | viability, T/C [8] 25.8% | viability, T/C [9] 20.2% | viability, T/C [10] 18.4% | viability, T/C [11] 19.1% | viability, T/C [12] 18.9% | viability, T/C [13] 47.8% | viability, T/C [14] 22.1% | viability, T/C [15] 19.9% | viability, T/C [16] 19.5% | viability, T/C [17] 19.4% | viability, T/C [18] 19.1% | viability, T/C [19] 41% | viability, T/C [20] 21.3% | viability, T/C [21] 19.8% | viability, T/C [22] 17.7% | viability, T/C [23] 18.2% | viability, T/C [24] 17.2% | viability, T/C [25] 38.2% | viability, T/C [26] 17.7% | viability, T/C [27] 16.3% | viability, T/C [28] 16.5% | viability, T/C [29] 19.4% | viability, T/C [30] 17.7% | viability, T/C [31] 36.8% | viability, T/C [32] 18.8% | viability, T/C [33] 17.5% | viability, T/C [34] 18.8% | viability, T/C [35] 18.4% | viability, T/C [36] 17.2%
32.9 nM: IC50 (second compound 0.0316 µM)
< 31.6 nM: IC50 (second compound 0.1 µM) | IC50 (second compound 0.316 µM) | IC50 (second compound 1 µM) | IC50 (second compound 3.16 µM) | IC50 (second compound 10 µM)
